Test results reported in article PMC11984586, “A novel spider toxin as a selective antagonist of the Kv1 subfamily of voltage-gated potassium channels through gating modulation” (The Journal of Biological Chemistry, 2025).
Bridge positions count the residues as written; N and C are the ends. Peptide text beside a SMILES is read from it.

Experiments:
Nav1.7-1.9 = assay: Selectivity patch clamp, non-Kv1 channels; type: cell-based; settings: 10 μM MrVIII; n = 3–5
Protocol: (§1) CHO-K1 cells were selected for expressing Kv channels due to their lack of endogenous Kv channels, while HEK293 or ND7/23 cells were used for Nav and Cav channel expression. CHO-K1 cells were cultured in a Dulbecco's modified Eagle's medium/Ham's F-12 nutrient mixture (DMEM-F12) medium, and HEK293T and ND7/23 cells in DMEM medium, all supplemented with 10% fetal bovine serum and 1% penicillin-streptomycin (all from Gibco, Thermo Fisher Scientific, Inc) under standard conditions (37 °C, 5% CO2, and saturated humidity). These cell lines were purchased from Stem Cell Bank, Chinese Academy of Sciences. Channel plasmids were cotransfected with pEGFP-N1 (encoding GFP) into the respective cells using lipofectamine 2000, following the manufacturer's instructions (Invitrogen, Thermo Fisher Scientific, Inc.). Nav1.9-GFP plasmid was transfected into ND7/23 using the X-tremeGENE HP DNA Transfection Reagent (Roche). After 4 to 6 h transfection, cells were seeded onto poly-lysine–coated coverslips, and 24 to 36 h later, transfected cells were ready for patch-clamp analysis.
(§2) Patch clamp experiments were conducted using an electrophysiology platform comprising a MultiClamp 700B amplifier and an Axon Digidata 1550 AD/DA convertor (Axon Instruments). Data acquisition was performed with pClamp 10.5 software (Axon Instruments). All experiments were performed at room temperature.

Cav1.3 = assay: Selectivity patch clamp, non-Kv1 channels; type: cell-based; settings: 10 μM MrVIII; n = 3–5
Protocol: as §1, §2

Nav1.2 = assay: Selectivity patch clamp, non-Kv1 channels; type: cell-based; settings: 10 μM MrVIII; n = 3–5
Protocol: as §1, §2

Nav1.4-1.5 = assay: Selectivity patch clamp, non-Kv1 channels; type: cell-based; settings: 10 μM MrVIII; n = 3–5
Protocol: as §1, §2

Cav2.2 = assay: Selectivity patch clamp, non-Kv1 channels; type: cell-based; settings: 10 μM MrVIII; n = 3–5
Protocol: as §1, §2

Cav3.2-3.3 = assay: Selectivity patch clamp, non-Kv1 channels; type: cell-based; settings: 10 μM MrVIII; n = 3–5
Protocol: as §1, §2

Kv1.3/L347I = target: T1, Kv1.3/L347I (Homo sapiens, UniProt P22001, L347I); assay: Whole-cell patch clamp, Kv1.3 point mutant; type: cell-based; settings: +30 mV stimulus, mean ± SD, n = 5, read-out: IC50, Kv1.3/L347I current
T1 construct: expressed in transfected cells; host or cells: CHO-K1
Excerpt: In contrast, differences at positions 347, 355, and 358 between Kv1.3 and Kv1.1 prompted further analysis. To explore whether these discrepancies influence peptide-mediated inhibition, we substituted these residues in Kv1.3 with their homologous counterparts in Kv1.1 and assessed the MrVIII's inhibitory efficacy on these single-point mutants. […] To further investigate this, we introduced double adjacent mutations around Q355 and M358 in Kv1.3 to explore potential synergistic effects on MrVIII's inhibitory activity.
The cDNA of hKv1.1, hKv1.2, hKv1.3, rKv1.4, hKv1.5, mKv1.6, and hKv1.7 were subcloned into mammalian expression vectors pcDNA3.1 or pCMV-blank vectors, as well as other plasmids described previously ([35]). Channel mutants were generated by site-directed mutations. Briefly, the parental channel plasmid was amplified using a pair of oppositely directed primers harboring the designed mutation site, with KOD Fx (TOYOBO Co, Ltd). The resulting PCR mix was treated with FastDigest DpnI (Thermo Fisher Scientific) to remove the methylated template. Ten microliters of the digested product was then used to transform 100 μl E. coli DH5α competent cells. […]
(§3) CHO-K1 cells were selected for expressing Kv channels due to their lack of endogenous Kv channels, while HEK293 or ND7/23 cells were used for Nav and Cav channel expression. […] After 4 to 6 h transfection, cells were seeded onto poly-lysine–coated coverslips, and 24 to 36 h later, transfected cells were ready for patch-clamp analysis. […]
For Kv current recordings, the bath solution contained (in mM) the following: 140 NaCl, 5 KCl, 1 MgCl2, 2 CaCl2, 10 glucose, and 10 Hepes (pH 7.3, adjusted with NaOH), and the pipette solution contained (in mM) the following: 140 KCl, 2.5 MgCl2, 11 EGTA, and 10 Hepes (pH 7.3, adjusted with KOH). […] Whole cell conductance (G) at each depolarizing voltage (V) was determined using the equation: G = I/(V−Vrev), where I is the current amplitude, and Vrev is the reversal potential. […] The steady-state fast inactivation of Kv1.3 was measured using a two-pulses protocol. […]

[1] = system: Kv1.3/Kv1.4 S3-S4 chimeric channel; assay: Whole-cell patch clamp, chimeric channel; type: cell-based, human/rat; settings: +30 mV, mean ± SD, n = 5-6
Excerpt: To investigate the structural determinants underlying the differential regulatory effects of MrVIII on Kv1 channels, we employed a chimeric channel strategy. Using Kv1.3 as the template, the S1-S2, S3-S4, and S5-S6 transmembrane helices and their respective linkers from Kv1.1 were inserted to generate chimeras, generating the Kv1.3/1.1 S1-S2, Kv1.3/1.1 S3-S4, and Kv1.3/1.1 S5-S6 chimeric channels. […] These findings indicate that the S3-S4 is the key determinant for the differential inhibition of Kv1.1 and Kv1.3 by MrVIII. To further validate this conclusion, we constructed a reverse chimeric channel using Kv1.1 as the template, inserting the corresponding regions from Kv1.3 into Kv1.1. […] This finding more directly illustrates the exchange of the channel's voltage-dependence phenotype in toxin inhibition by swapping this S3-S4 between Kv1.1 and Kv1.3. […] In addition to confirming the differential role of S3-S4 between Kv1.1 and Kv1.3, we also substituted the S3-S4 of Kv1.4 and Kv1.7 into Kv1.3 to analyze MrVIII's inhibition profile. […]
as §3

T1 sequence (P22001 whole entry L347I): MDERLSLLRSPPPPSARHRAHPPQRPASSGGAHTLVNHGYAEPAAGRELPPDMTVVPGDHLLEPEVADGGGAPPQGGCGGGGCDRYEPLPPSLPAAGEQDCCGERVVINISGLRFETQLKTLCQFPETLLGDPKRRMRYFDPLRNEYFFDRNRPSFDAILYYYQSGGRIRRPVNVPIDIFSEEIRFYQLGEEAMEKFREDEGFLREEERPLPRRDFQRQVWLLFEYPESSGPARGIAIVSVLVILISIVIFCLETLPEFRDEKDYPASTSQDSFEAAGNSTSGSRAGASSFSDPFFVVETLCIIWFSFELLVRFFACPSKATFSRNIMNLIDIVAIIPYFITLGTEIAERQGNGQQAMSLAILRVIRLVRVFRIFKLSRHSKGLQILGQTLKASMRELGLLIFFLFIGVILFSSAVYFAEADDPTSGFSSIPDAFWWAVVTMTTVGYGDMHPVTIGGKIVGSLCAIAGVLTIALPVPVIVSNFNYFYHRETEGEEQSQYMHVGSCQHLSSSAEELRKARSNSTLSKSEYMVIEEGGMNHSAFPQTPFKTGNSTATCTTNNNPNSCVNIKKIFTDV

## CC[C@H](C)[C@@H]1NC(=O)[C@H](Cc2ccc(O)cc2)NC(=O)[C@H](CCC(N)=O)NC(=O)[C@@H]2CCCN2C(=O)[C@@H]2CSSC[C@H](NC(=O)[C@H](C)NC(=O)[C@H](CO)NC(=O)[C@H](CCC(=O)O)NC(=O)[C@H](CCC(=O)O)NC(=O)[C@@H](N)[C@@H](C)O)C(=O)NCC(=O)NCC(=O)N[C@@H](Cc3ccccc3)C(=O)N[C@@H](CC(N)=O)C(=O)N[C@@H](C)C(=O)N[C@@H](CCCNC(=N)N)C(=O)N[C@H]3CSSC[C@H](NC1=O)C(=O)N[C@@H](CCCCN)C(=O)NCC(=O)N[C@@H](Cc1c[nH]c4ccccc14)C(=O)N[C@@H](CCCNC(=N)N)C(=O)N[C@@H]([C@@H](C)O)C(=O)N[C@@H](CCCCN)C(=O)N[C@@H](CCCNC(=N)N)C(=O)N[C@H](C(=O)N[C@@H](CC(C)C)C(=O)N[C@@H](CC(N)=O)C(=O)N1CCC[C@H]1C(=O)O)CSSC[C@H](NC(=O)[C@H](CCCCN)NC(=O)[C@H](Cc1c[nH]cn1)NC(=O)[C@H](CC(C)C)NC(=O)[C@@H]1CCCN1C3=O)C(=O)N2 [MrVIII] (H-TEESACGGFNARCPLHKCCPQYICKGWRTKRCLNP-OH; disulfide 6-19, 13-24, 18-32; N-terminus and C-terminus assumed)
Nav1.7-1.9
  inhibition of Nav1.7-1.9 currents: did not remarkably inhibit
Cav1.3
  inhibition of Cav1.3 current: did not remarkably inhibit
Nav1.2
  inhibition of Nav1.2 current: did not remarkably inhibit
Nav1.4-1.5
  inhibition of Nav1.4-1.5 currents: did not remarkably inhibit
Cav2.2
  inhibition of Cav2.2 current: did not remarkably inhibit
Cav3.2-3.3
  inhibition of Cav3.2-3.3 currents: did not remarkably inhibit
Kv1.3/L347I
  IC50: 14.2 ± 0.8 nM
[1]; current at 50 ms
  IC50: 117 ± 48.2 nM
[1]; current at 495 ms
  inhi%(495 ms), Kv1.3/Kv1.4 S3-S4 current: 37.9 ± 5.4%
